pIC50: −log10 of the molar value. Calls of active or inactive are those of the source. The rule behind the calls is not given here.
Columns and labels:
[1] = tested on: HCT-116; test: Induction of ROS generation in human HCT116 cells at 12.5 uM after 5 mins by DCFH-DA probe based fluorescence assay relative to control; format: functional, cell-based
[2] = Cytotoxicity against human HCT116 cells assessed as decrease in cell viability after 17 hrs by MTT assay; format: functional, cell-based; settings: HCT-116, 17 h
[3] = tested on: HCT-116; test: Induction of apoptosis in human HCT116 cells assessed as nuclear condensation at 100 uM after 48 hrs by Hoechst 33342 staining based assay; format: functional, cell-based
[4] = tested on: HCT-116; test: Induction of H2O2 accumulation in human HCT116 cells at 12.5 uM relative to control; format: functional
[5] = tested on: HCT-116; test: Induction of apoptosis in human HCT116 cells assessed as increase in caspase 3/7 activation at 50 to 200 uM after 17 hrs by luciferase coupled luminescence assay; format: functional, cell-based
[6] = tested on: HCT-116; test: Cytotoxicity against human HCT116 cells assessed as decrease in cell viability at 6.25 to 200 uM after 17 hrs by MTT assay; format: functional, cell-based

Row | SMILES | Activity [1] | pIC50 [2] | Activity [3] | fold change (FC) [4] | Activity [5] | Activity [6]
1 | CC(C)[C@H]1CC[C@H](C)[C@@]23CC[C@@](C)(C=C12)OO3 | Active | 4.41 | Active | 2 - 3 | Active | Active
2 | Cc1ccc2c(c1)[C@H](C(C)C)CC[C@@]2(C)OO | Active | 4.36 | Active | 2 - 3 | Active | Active
3 | CC1=C[C@@H]2C(=CC1)[C@](C)(OO)CC[C@@H]2C(C)C | Active | 4.21 | Active | 2 - 3 | Active | Active
